Test system: subjects with advanced malignancies
Assay: Phase 1 dose escalation: toxicity, safety and tolerability (DLT, MAD, RP2D, AEs)
[1] = 7.11 mg/m^2 (n = 7), All grades

Protocol: Subjects continued on treatment until there was disease progression, unacceptable toxicity, or the subject withdrew consent. The trial employed an accelerated titration design [16] starting at a dose of 0.33 mg/m^2 (one-sixth of the highest nontoxic dose in dogs).
the dose was doubled in sequential subjects until a DLT was observed or a subject experienced grade 2 toxicity [16]. In the case of an observed grade 2 toxicity, a second subject was enrolled at the same dose level. If the second subject also experienced a grade 2 toxicity, 2 additional subjects were accrued at that dose level for a total of 4 subjects. […] Each subject was allocated to only a single dose level of drug. Dose delay or modification was permitted based on laboratory and clinical assessment performed on the day of treatment.
Dose-limiting toxicities were determined during the first cycle for each dose level. A DLT was defined as any grade 3 or 4 hematologic toxicity lasting for at least 1 week, or as any grade 3 or 4 nonhematologic toxicity. […] Normal alkaline phosphatase level (< grade 1) at screening that rose to greater than or equal to grade 3; grade 1 or 2 alkaline phosphatase level at screening that rose to grade 4; grade 1 or 2 aspartate aminotransferase (AST) and/or alanine aminotransferase (ALT) levels at screening that doubled from baseline to become greater than or equal to grade 3; and any other abnormal nonhematology laboratory value greater than or equal to grade 3 that required medical intervention to treat, led to hospitalization, or persisted for at least 1 week were also considered DLTs.
Adverse events were graded based on the National Cancer Institute Common Terminology Criteria for Adverse Events (NCI CTCAE version 3.0) and were coded using the Medical Dictionary for Regulatory Activities (MedDRA version 13.0).

CCc1cnn2c(NCc3ccc[n+]([O-])c3)cc(N3CCCC[C@H]3CCO)nc12 [dinaciclib]
1 (14) n (%): TEAE: Abdominal distension [1] | TEAE: Back pain [1] | TEAE: Constipation [1] | TEAE: Dehydration [1] | TEAE: Diarrhea [1] | TEAE: Hypokalemia [1] | TEAE: Peripheral edema [1] | TEAE: Pyrexia [1] | TEAE: Weight decreased [1] | TEAE: Abdominal pain (7.11 mg/m^2 (n = 7), Grade 3–4) | TEAE: Dyspnea (7.11 mg/m^2 (n = 7), Grade 3–4) | TEAE: Vomiting (7.11 mg/m^2 (n = 7), Grade 3–4)
2 (29) n (%): TEAE: Asthenia [1] | TEAE: Decreased appetite [1] | TEAE: Flatulence [1] | TEAE: Urinary tract infection [1] | TEAE: Vomiting [1] | TEAE: Anemia (7.11 mg/m^2 (n = 7), Grade 3–4)
3 (100) n (%): TEAE: Subjects with any AE (10 mg/m^2 (n = 3), All grades)
4 (57) n (%): TEAE: Subjects with any AE (7.11 mg/m^2 (n = 7), Grade 3–4)
1 (33) n (%): TEAE: Abdominal pain (10 mg/m^2 (n = 3), All grades) | TEAE: Diarrhea (10 mg/m^2 (n = 3), All grades) | TEAE: Hyperglycemia (10 mg/m^2 (n = 3), All grades) | TEAE: Hypokalemia (10 mg/m^2 (n = 3), All grades) | TEAE: Nausea (10 mg/m^2 (n = 3), All grades) | TEAE: Neutropenia (10 mg/m^2 (n = 3), All grades) | TEAE: Urinary tract infection (10 mg/m^2 (n = 3), All grades)
5 (71) n (%): TEAE: Nausea [1]
3 (43) n (%): TEAE: Abdominal pain [1] | TEAE: Anemia [1] | TEAE: Dizziness [1] | TEAE: Dyspnea [1] | TEAE: Fatigue [1]
0 n (%): TEAE: Cough [1] | TEAE: Hyperbilirubinemia [1] | TEAE: Hyperglycemia [1] | TEAE: Hyperuricemia [1] | TEAE: Hypophosphatemia [1] | TEAE: Increased ALP [1] | TEAE: Increased ALT [1] | TEAE: Increased AST [1] | TEAE: Neutropenia [1] | TEAE: Abdominal distension (7.11 mg/m^2 (n = 7), Grade 3–4) | TEAE: Asthenia (7.11 mg/m^2 (n = 7), Grade 3–4) | TEAE: Back pain (7.11 mg/m^2 (n = 7), Grade 3–4) | TEAE: Constipation (7.11 mg/m^2 (n = 7), Grade 3–4) | TEAE: Cough (7.11 mg/m^2 (n = 7), Grade 3–4) | TEAE: Decreased appetite (7.11 mg/m^2 (n = 7), Grade 3–4) | TEAE: Dehydration (7.11 mg/m^2 (n = 7), Grade 3–4) | TEAE: Diarrhea (7.11 mg/m^2 (n = 7), Grade 3–4) | TEAE: Dizziness (7.11 mg/m^2 (n = 7), Grade 3–4) | TEAE: Fatigue (7.11 mg/m^2 (n = 7), Grade 3–4) | TEAE: Flatulence (7.11 mg/m^2 (n = 7), Grade 3–4) | TEAE: Hyperbilirubinemia (7.11 mg/m^2 (n = 7), Grade 3–4) | TEAE: Hyperglycemia (7.11 mg/m^2 (n = 7), Grade 3–4) | TEAE: Hyperuricemia (7.11 mg/m^2 (n = 7), Grade 3–4) | TEAE: Hypokalemia (7.11 mg/m^2 (n = 7), Grade 3–4) | TEAE: Hypophosphatemia (7.11 mg/m^2 (n = 7), Grade 3–4) | TEAE: Increased ALP (7.11 mg/m^2 (n = 7), Grade 3–4) | TEAE: Increased ALT (7.11 mg/m^2 (n = 7), Grade 3–4) | TEAE: Increased AST (7.11 mg/m^2 (n = 7), Grade 3–4) | TEAE: Nausea (7.11 mg/m^2 (n = 7), Grade 3–4) | TEAE: Neutropenia (7.11 mg/m^2 (n = 7), Grade 3–4) | TEAE: Peripheral edema (7.11 mg/m^2 (n = 7), Grade 3–4) | TEAE: Pyrexia (7.11 mg/m^2 (n = 7), Grade 3–4) | TEAE: Urinary tract infection (7.11 mg/m^2 (n = 7), Grade 3–4) | TEAE: Weight decreased (7.11 mg/m^2 (n = 7), Grade 3–4) | TEAE: Abdominal distension (10 mg/m^2 (n = 3), All grades) | TEAE: Anemia (10 mg/m^2 (n = 3), All grades) | TEAE: Asthenia (10 mg/m^2 (n = 3), All grades) | TEAE: Back pain (10 mg/m^2 (n = 3), All grades) | TEAE: Cough (10 mg/m^2 (n = 3), All grades) | TEAE: Decreased appetite (10 mg/m^2 (n = 3), All grades) | TEAE: Dehydration (10 mg/m^2 (n = 3), All grades) | TEAE: Dizziness (10 mg/m^2 (n = 3), All grades) | TEAE: Dyspnea (10 mg/m^2 (n = 3), All grades) | TEAE: Fatigue (10 mg/m^2 (n = 3), All grades) | TEAE: Flatulence (10 mg/m^2 (n = 3), All grades) | TEAE: Hyperbilirubinemia (10 mg/m^2 (n = 3), All grades) | TEAE: Hyperuricemia (10 mg/m^2 (n = 3), All grades) | TEAE: Hypophosphatemia (10 mg/m^2 (n = 3), All grades) | TEAE: Increased ALP (10 mg/m^2 (n = 3), All grades) | TEAE: Increased ALT (10 mg/m^2 (n = 3), All grades) | TEAE: Increased AST (10 mg/m^2 (n = 3), All grades) | TEAE: Peripheral edema (10 mg/m^2 (n = 3), All grades) | TEAE: Pyrexia (10 mg/m^2 (n = 3), All grades) | TEAE: Weight decreased (10 mg/m^2 (n = 3), All grades) | TEAE: Abdominal distension (10 mg/m^2 (n = 3), Grade 3–4) | TEAE: Abdominal pain (10 mg/m^2 (n = 3), Grade 3–4) | TEAE: Anemia (10 mg/m^2 (n = 3), Grade 3–4) | TEAE: Asthenia (10 mg/m^2 (n = 3), Grade 3–4) | TEAE: Back pain (10 mg/m^2 (n = 3), Grade 3–4) | TEAE: Constipation (10 mg/m^2 (n = 3), Grade 3–4) | TEAE: Cough (10 mg/m^2 (n = 3), Grade 3–4) | TEAE: Decreased appetite (10 mg/m^2 (n = 3), Grade 3–4) | TEAE: Dehydration (10 mg/m^2 (n = 3), Grade 3–4) | TEAE: Diarrhea (10 mg/m^2 (n = 3), Grade 3–4) | TEAE: Dizziness (10 mg/m^2 (n = 3), Grade 3–4) | TEAE: Dyspnea (10 mg/m^2 (n = 3), Grade 3–4) | TEAE: Fatigue (10 mg/m^2 (n = 3), Grade 3–4) | TEAE: Flatulence (10 mg/m^2 (n = 3), Grade 3–4) | TEAE: Hyperbilirubinemia (10 mg/m^2 (n = 3), Grade 3–4)
2 (67) n (%): TEAE: Constipation (10 mg/m^2 (n = 3), All grades) | TEAE: Vomiting (10 mg/m^2 (n = 3), All grades)
7 (100) n (%): TEAE: Subjects with any AE [1]
